One assay deals with PI3K-α (Homo sapiens, UniProt P42336). Put plainly: PI3K-alpha fluorescence polarization assay. The format is biochemical. The settings on record: 20 μM PIP2, 25 μM ATP. In outline:
(§1)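 Buffer: 20 mM HEPES pH7.5, 2 mM MgCl2, 0.05% CHAPS, 0.01% βME. Enzyme with compound was reacted with final 20 μM diC8 PIP2 and 25 μM ATP for 30-60 minutes at room temperature. The stop/detection mix (10 nM TAMRA probe, 2.5 uM GST-murine GRP as added) was read by fluorescence polarization after 90-110 minutes.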
A general note: Fluorescence polarisation rises when a labelled molecule tumbles more slowly, as on binding a larger partner.

The target in assay [1] is T1, mTOR (Homo sapiens, UniProt P42345). The experiment in a line: mTOR enzyme assay (DELFIA, His6-S6K phosphorylation). The format is biochemical. On the set-up: FLAG. The settings on record: 100 μM ATP, 1.25 μM His6-S6K.
In the next assay the target is PI3K-γ (Homo sapiens, UniProt P48736). Put plainly: PI3K-gamma fluorescence polarization assay. The format is biochemical. The settings on record: 20 μM PIP2, 25 μM ATP. The method in brief: as §1
The next assay addresses PI3K-δ (Homo sapiens, UniProt O00329). Put plainly: PI3K fluorescence polarization assay (PI3K-δ). The format is biochemical. How it is done: (§2) The reaction buffer was 20 mM HEPES pH7.5, 2 mM MgCl2, 0.05% CHAPS, and 0.01% βME (added fresh). The substrate solution was 40 μM PIP2 (diC8, Echelon, Salt Lake City Utah cat #P-4508, 1 mM in water) and 50 μM ATP in the reaction buffer. Nunc 384-well black polypropylene fluorescent plates were used for PI3K assays. The assay is run by putting 9.5 μl of freshly diluted enzyme in the reaction buffer per well, adding 0.5 μl of diluted drug or DMSO, and mixing. Then 10 μl of the substrate solution is added to each well to start the reaction. A final concentration of 20 μM PIP2 and 25 μM ATP in the reaction was used. Reactions were allowed to proceed for 30-60 minutes at room temperature. After 30-60 minutes, 20 μl of a solution of 10 nM TAMRA detector (Red detector probe-Echelon) and 2.5 uM of GST-murineGRP (1.5 mg/ml in 17% glycerol) was added per well to stop the reaction. The resulting solution was mixed well and allowed to stand for 90-110 minutes before reading plate. Assay Plates were read on Perkin-Elmer Envision plate readers with appropriate filters for Tamra [BODIPY-TMRI(1,3,4,5)P4]. Data obtained were used to calculate enzymatic activity and enzyme inhibition by inhibitor compounds. It is important to keep Red probe solutions dark. This procedure is adapted from Echelon Biosciences Inc procedure for their PI3-Kinase fluorescence polarization activity Assay kit Product number K-1100.

In another assay the target is PI3K-β (Homo sapiens, UniProt P42338). Put plainly: PI3K fluorescence polarization assay (PI3K-β). The format is biochemical. On the procedure:
as §2

The subject of the next assay is human tumor xenografts. The settings on record: cited from earlier work.
Assay [2] concerns the target T1, mTOR. The settings on record: read-out: mTOR IC50; mTOR complexes (PI103) / mTOR enzymes (ZSTK474); cited from earlier work.
Assay [3] relates to acute lymphoblastic leukemia. The settings on record: in vivo; cited from earlier work.

Each structure is given as a SMILES string. Where two headings read alike, the source gives them in different places.

Chain of PI3K-δ (O00329 whole entry, species assumed): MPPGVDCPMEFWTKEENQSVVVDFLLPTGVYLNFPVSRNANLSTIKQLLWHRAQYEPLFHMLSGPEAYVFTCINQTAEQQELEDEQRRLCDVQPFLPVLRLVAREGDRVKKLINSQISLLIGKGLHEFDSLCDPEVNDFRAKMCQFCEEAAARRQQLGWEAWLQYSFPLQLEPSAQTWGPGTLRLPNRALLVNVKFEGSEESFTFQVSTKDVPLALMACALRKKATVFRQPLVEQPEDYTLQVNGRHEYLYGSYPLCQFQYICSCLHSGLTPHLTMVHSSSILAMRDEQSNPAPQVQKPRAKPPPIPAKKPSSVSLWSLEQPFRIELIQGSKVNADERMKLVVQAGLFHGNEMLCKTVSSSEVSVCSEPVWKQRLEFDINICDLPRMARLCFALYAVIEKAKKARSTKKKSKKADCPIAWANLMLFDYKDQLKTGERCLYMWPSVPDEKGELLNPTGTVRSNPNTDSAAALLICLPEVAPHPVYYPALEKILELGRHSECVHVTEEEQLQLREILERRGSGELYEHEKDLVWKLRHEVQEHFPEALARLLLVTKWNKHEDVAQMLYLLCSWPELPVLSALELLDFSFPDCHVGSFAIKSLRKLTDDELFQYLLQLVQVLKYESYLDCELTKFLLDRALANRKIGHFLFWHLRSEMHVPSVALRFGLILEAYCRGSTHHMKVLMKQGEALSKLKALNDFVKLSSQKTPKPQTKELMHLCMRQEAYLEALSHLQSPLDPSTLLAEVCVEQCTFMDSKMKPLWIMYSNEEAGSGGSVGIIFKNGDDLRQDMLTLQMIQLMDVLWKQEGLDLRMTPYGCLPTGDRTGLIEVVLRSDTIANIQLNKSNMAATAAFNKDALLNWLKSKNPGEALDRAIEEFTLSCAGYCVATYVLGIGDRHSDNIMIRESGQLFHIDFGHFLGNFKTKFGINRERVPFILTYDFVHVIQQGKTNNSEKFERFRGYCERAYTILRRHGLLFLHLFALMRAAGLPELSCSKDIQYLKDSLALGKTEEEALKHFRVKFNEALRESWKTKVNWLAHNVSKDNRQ
Chain of PI3K-δ (P27986 whole entry partner, species assumed): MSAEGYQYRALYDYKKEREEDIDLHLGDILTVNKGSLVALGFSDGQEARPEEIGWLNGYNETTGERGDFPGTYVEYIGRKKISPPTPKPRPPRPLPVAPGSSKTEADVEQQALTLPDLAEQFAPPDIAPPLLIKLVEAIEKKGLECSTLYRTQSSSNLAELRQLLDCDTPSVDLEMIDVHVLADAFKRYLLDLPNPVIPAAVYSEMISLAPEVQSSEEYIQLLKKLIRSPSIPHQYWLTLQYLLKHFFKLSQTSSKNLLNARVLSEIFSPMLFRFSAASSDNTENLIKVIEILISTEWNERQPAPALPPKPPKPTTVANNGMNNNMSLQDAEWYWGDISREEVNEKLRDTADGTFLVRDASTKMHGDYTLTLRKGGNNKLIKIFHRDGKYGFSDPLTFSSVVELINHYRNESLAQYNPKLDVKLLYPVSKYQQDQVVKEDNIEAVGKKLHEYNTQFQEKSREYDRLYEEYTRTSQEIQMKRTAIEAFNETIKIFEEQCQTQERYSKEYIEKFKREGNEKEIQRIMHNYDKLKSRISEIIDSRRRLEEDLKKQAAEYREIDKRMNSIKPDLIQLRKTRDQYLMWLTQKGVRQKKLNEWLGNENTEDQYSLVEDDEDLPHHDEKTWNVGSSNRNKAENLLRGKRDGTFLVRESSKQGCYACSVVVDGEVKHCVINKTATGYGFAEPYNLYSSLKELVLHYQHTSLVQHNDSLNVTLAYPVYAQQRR
Chain of PI3K-γ (P48736 whole entry, species assumed): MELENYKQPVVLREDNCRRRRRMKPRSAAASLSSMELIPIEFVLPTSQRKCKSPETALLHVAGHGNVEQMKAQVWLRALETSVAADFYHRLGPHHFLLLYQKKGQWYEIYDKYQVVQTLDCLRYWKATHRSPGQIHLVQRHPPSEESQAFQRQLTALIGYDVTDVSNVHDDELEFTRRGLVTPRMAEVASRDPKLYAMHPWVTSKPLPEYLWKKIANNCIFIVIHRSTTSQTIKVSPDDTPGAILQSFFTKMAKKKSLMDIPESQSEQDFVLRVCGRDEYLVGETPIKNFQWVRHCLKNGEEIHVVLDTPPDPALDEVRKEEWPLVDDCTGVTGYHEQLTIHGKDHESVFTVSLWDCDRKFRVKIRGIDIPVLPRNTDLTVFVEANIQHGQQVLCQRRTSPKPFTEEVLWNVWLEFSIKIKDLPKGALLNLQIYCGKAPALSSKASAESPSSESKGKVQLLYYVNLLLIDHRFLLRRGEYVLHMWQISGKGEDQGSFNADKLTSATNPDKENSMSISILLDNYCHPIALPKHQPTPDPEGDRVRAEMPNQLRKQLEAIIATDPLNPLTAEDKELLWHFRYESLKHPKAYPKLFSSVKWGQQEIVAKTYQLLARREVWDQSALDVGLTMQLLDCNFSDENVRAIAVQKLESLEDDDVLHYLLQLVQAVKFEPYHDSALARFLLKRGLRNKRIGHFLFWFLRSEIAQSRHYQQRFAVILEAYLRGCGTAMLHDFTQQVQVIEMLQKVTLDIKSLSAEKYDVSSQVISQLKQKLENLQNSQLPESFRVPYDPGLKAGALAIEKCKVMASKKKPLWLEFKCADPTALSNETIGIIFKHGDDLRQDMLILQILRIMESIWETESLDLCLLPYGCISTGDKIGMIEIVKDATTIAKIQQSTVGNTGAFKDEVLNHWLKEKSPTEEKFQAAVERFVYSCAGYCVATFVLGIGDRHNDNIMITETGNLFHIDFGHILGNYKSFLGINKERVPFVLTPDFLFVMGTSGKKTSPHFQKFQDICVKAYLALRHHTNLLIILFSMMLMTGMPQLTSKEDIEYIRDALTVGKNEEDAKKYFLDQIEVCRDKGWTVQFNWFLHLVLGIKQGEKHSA
Chain of PI3K-β (P42338 whole entry, species assumed): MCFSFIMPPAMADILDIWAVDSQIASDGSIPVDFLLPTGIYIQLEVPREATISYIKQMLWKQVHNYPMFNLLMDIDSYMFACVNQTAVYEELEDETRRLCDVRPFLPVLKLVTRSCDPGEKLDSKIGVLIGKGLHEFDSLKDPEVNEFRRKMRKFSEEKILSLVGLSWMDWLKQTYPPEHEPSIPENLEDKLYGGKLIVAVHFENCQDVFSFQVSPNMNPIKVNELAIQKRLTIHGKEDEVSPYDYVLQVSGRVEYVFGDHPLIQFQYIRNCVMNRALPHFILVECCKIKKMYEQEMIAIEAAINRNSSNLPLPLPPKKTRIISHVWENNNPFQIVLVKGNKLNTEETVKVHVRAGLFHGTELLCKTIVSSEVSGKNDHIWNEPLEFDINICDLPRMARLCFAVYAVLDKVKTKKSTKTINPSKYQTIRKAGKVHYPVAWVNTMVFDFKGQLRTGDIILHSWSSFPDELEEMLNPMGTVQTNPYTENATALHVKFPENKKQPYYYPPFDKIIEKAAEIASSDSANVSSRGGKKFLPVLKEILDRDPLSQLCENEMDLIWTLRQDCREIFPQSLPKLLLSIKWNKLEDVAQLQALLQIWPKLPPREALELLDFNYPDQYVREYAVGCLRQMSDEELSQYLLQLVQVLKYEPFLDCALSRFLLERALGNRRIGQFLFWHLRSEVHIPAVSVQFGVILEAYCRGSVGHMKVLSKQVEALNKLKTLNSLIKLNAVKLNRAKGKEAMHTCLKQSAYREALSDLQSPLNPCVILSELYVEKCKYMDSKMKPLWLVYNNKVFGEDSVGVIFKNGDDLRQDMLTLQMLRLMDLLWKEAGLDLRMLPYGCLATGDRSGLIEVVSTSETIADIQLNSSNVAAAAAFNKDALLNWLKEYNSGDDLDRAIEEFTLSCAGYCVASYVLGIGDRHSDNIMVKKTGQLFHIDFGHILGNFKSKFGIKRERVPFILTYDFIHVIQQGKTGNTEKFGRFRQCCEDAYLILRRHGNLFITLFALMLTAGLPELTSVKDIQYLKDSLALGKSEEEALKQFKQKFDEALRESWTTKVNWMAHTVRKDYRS
Chain of PI3K-β (P27986 whole entry partner, species assumed): as the sequence (P27986 whole entry partner, species assumed) above
Chain of PI3K-α (P42336 whole entry, species assumed): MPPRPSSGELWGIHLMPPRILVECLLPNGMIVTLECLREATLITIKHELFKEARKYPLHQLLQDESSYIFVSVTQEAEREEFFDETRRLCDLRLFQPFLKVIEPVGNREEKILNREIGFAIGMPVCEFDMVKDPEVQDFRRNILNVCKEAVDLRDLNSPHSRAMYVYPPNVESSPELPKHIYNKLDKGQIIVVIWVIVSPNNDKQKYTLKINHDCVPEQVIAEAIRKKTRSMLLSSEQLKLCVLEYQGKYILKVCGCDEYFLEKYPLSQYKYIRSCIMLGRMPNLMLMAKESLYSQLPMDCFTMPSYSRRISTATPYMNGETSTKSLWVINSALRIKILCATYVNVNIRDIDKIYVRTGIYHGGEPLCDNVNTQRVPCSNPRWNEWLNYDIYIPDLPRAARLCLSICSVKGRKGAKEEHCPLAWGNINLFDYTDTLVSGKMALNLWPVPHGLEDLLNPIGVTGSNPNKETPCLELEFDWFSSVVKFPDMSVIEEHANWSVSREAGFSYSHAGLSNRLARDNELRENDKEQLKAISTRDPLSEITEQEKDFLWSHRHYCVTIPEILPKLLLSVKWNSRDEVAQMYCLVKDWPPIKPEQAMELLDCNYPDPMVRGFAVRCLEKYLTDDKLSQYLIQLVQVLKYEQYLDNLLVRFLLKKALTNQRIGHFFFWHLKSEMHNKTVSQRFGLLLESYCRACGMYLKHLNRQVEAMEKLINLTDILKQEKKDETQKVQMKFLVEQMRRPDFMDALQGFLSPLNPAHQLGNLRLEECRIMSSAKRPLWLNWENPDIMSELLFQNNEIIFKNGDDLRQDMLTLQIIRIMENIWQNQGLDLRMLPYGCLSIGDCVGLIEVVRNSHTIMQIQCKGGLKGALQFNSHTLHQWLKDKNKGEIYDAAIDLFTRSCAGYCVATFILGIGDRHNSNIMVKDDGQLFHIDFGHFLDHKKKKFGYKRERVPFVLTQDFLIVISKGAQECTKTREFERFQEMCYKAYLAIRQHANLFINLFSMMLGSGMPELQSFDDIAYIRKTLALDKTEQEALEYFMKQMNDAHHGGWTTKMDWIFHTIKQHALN
Chain of PI3K-α (P27986 whole entry partner, species assumed): as the sequence (P27986 whole entry partner, species assumed) above

On to `CC(=O)Nc1ccc(Oc2nc(-c3cccc(O)c3)nc3c2cnn3C)cc1` [Example 50, N-(4-{[6-(3-hydroxyphenyl)-1-methyl-1H-pyrazolo[3,4-d]pyrimidin-4-yl]oxy}phenyl)acetamide], for which the concentration for half-maximal inhibition (IC50) (usually the concentration needed to halve the response being measured) stood at 113 nM against PI3K-α; 2100 nM at mTOR [1]; 114 nM against PI3K-γ; 65 nM against PI3K-δ; 213 nM against PI3K-β.
For the compound `Oc1cccc(-c2nc(N3CCOCC3)c3oc4ncccc4c3n2)c1` [PI103, 3-(4-(4-morpholinyl)pyrido[3′,2′:4,5]furo[3,2-d]pyrimidin-2-yl)phenol], the “activity in human tumor xenograft models” value in the assay with human tumor xenografts (I.P. dosing in mice, U87MG, PC3, MDA-MB-468, MDA-MB-435, HCT 116, SKOV3, IGROV-1) is listed as “demonstrated activity”.
For the compound `COc1cccc(-c2nc(Oc3ccc(NC(C)=O)cc3)c3cnn(C)c3n2)c1` [Example 49, N-(4-{[6-(3-methoxyphenyl)-1-methyl-1H-pyrazolo[3,4-d]pyrimidin-4-yl]oxy}phenyl)acetamide], the IC50 against PI3K-α is 258 nM; at mTOR [1], > 20000 nM; at PI3K-γ, 514 nM; against PI3K-δ it was 134 nM; against PI3K-β it was 1040 nM.
For the compound `Cc1noc(C)c1-c1nc(Nc2ccc(C(N)=O)cc2)c2cnn(C)c2n1` [Example 63, 4-{[6-(3,5-dimethylisoxazol-4-yl)-1-methyl-1H-pyrazolo[3,4-d]pyrimidin-4-yl]amino}benzamide], the IC50 against PI3K-α worked out at 75 nM; against mTOR [1] it was 2800 nM; against PI3K-γ, 416 nM; against PI3K-δ, 439 nM; at PI3K-β it was 2150 nM.
As to `FC(F)c1nc2ccccc2n1-c1nc(N2CCOCC2)nc(N2CCOCC2)n1` [ZSTK474, 2-(2-difluoromethylbenzoimidazol-1-yl)-4,6-dimorpholino-1,3,5-triazine], the IC50 at mTOR [2] is > 10000 nM. Besides, the “tumor growth in mouse human xenograft cancer models” value with human tumor xenografts (chronic oral administration, 400 mg/kg, A549, PC-3, WiDr) is recorded as “completely inhibited growth”.
With `CO[C@H]1C[C@@H]2CC[C@@H](C)[C@@](O)(O2)C(=O)C(=O)N2CCCC[C@H]2C(=O)O[C@H]([C@H](C)C[C@@H]2CC[C@@H](OC(=O)C(C)(CO)CO)[C@H](OC)C2)CC(=O)[C@H](C)/C=C(\C)[C@@H](O)[C@@H](OC)C(=O)[C@H](C)C[C@H](C)/C=C/C=C/C=C/1C` [Torisel], in assay [3], the “activity in NOS/SCID xenograft mouse model of acute lymphoblastic leukemia” value is listed as “active”.
With `Cn1ncc2c(Nc3ccc(C(N)=O)cc3)nc(-c3cccc(Cl)c3)nc21` [Example 64, 4-{[6-(3-chlorophenyl)-1-methyl-1H-pyrazolo[3,4-d]pyrimidin-4-yl]amino}benzamide], the IC50 against PI3K-α came to 40 nM; at mTOR [1], 300 nM; on PI3K-γ, 331 nM; against PI3K-δ it was 170 nM; against PI3K-β, 1620 nM.
As to `COc1ccc(-c2nc(Oc3ccc4[nH]ccc4c3)c3cnn(C)c3n2)cc1OC` [Example 39, 6-(3,4-dimethoxyphenyl)-4-(1H-indol-5-yloxy)-1-methyl-1H-pyrazolo[3,4-d]pyrimidine], the concentration for half-maximal inhibition (IC50) on PI3K-α amounted to 160 nM; on mTOR [1], 2800 nM; on PI3K-γ, 118 nM.
Turning to `Cn1c(=O)n(-c2ccc(C(C)(C)C#N)cc2)c2c3cc(-c4cnc5ccccc5c4)ccc3ncc21` [NVP-BEZ-235, 2-methyl-2-(4-(3-methyl-2-oxo-8-(quinolin-3-yl)-2,3-dihydro-1H-imidazo[4,5-c]quinolin-1-yl)phenyl)propanenitrile], the “activity in human tumor xenograft models” value in the assay with human tumor xenografts (prostrate (PC-3) and glioblastoma (U-87)) is “demonstrated activity”.
As for `Cn1ncc2c(Oc3ccc4[nH]ccc4c3)nc(-c3ccoc3)nc21` [Example 68, 6-(3-furyl)-4-(1H-indol-5-yloxy)-1-methyl-1H-pyrazolo[3,4-d]pyrimidine], the concentration for half-maximal inhibition (IC50) was 1050 nM at PI3K-α, > 20000 nM on mTOR [1] and 1030 nM against PI3K-γ.
With `CN1CCC(NC(=O)Nc2ccc(Nc3nc(Nc4ccc(C(N)=O)cc4)c4cnn(C)c4n3)cc2)CC1` [Example 91, 4-({1-Methyl-6-[(4-{[(1-methylpiperidin-4-yl)carbamoyl]amino}phenyl)amino]-1H-pyrazolo[3,4-d]pyrimidin-4-yl}amino)benzamide], the IC50 against PI3K-α is 198 nM; at mTOR [1], 2000 nM; at PI3K-γ, 3170 nM.
In the same order, the values of `CN1CCN(C(=O)c2ccc(NC(=O)Nc3ccc(Nc4nc(Nc5ccc(C(N)=O)cc5)c5cnn(C)c5n4)cc3)cc2)CC1` [Example 81, 4-{[1-Methyl-6-({4-[({4-[(4-methylpiperazin-1-yl)carbonyl]phenyl}carbamoyl)amino]phenyl}amino)-1H-pyrazolo[3,4-d]pyrimidin-4-yl]amino}benzamide] are 0.4 nM, 17 nM and 6 nM.
The matching figures for `Cc1noc(C)c1-c1nc(Oc2ccc3[nH]ccc3c2)c2cnn(C)c2n1` [Example 72, 6-(3,5-dimethylisoxazol-4-yl)-4-(1H-indol-5-yloxy)-1-methyl-1H-pyrazolo[3,4-d]pyrimidine]: 580 nM, > 20000 nM and 1350 nM.
Consider `CNC(=O)Nc1cccc(-c2nc(Nc3ccc(C(N)=O)cc3)c3cnn(C)c3n2)c1` [Example 78, 4-(1-methyl-6-(3-(3-methylureido)phenyl)-1H-pyrazolo[3,4-d]pyrimidin-4-ylamino)benzamide], for which the figures for the half-maximal inhibitory concentration (IC50) at PI3K-α, on mTOR [1] and on PI3K-γ were 277 nM, 775 nM and 3600 nM, respectively.
Consider `CNC(=O)Nc1ccc(-c2nc(Nc3ccc(C(N)=O)cc3)c3cnn(C)c3n2)cc1` [Example 77, 4-(1-methyl-6-(4-(3-methylureido)phenyl)-1H-pyrazolo[3,4-d]pyrimidin-4-ylamino)benzamide], for which the IC50 on PI3K-α is 493 nM; at mTOR [1], 1700 nM; at PI3K-γ, 2900 nM.
In the same order, the values of `CN(C)C1CCN(C(=O)c2ccc(NC(=O)Nc3ccc(Nc4nc(Nc5ccc(C(N)=O)cc5)c5cnn(C)c5n4)cc3)cc2)CC1` [Example 82, 4-({6-[(4-{[(4-{[4-(Dimethylamino)piperidin-1-yl]carbonyl}phenyl)carbamoyl]amino}phenyl)amino]-1-methyl-1H-pyrazolo[3,4-d]pyrimidin-4-yl}amino)benzamide] are 0.2 nM, 7 nM and 5 nM.
As for `Cn1ncc2c(Oc3ccc4[nH]ccc4c3)nc(-c3cccc(C#N)c3)nc21` [Example 43, 3-[4-(1H-indol-5-yloxy)-1-methyl-1H-pyrazolo[3,4-d]pyrimidin-6-yl]benzonitrile], the IC50 against PI3K-α turned out to be 598 nM; on mTOR [1] it was 8400 nM; against PI3K-γ, 1610 nM.
Regarding `COc1cccc(-c2nc(Oc3ccc4[nH]ccc4c3)c3cnn(C)c3n2)c1` [Example 38, 4-(1H-indol-5-yloxy)-6-(3-methoxyphenyl)-1-methyl-1H-pyrazolo[3,4-d]pyrimidine], the figures for the IC50 at PI3K-α, against mTOR [1] and against PI3K-γ were 298 nM, 2500 nM and 1140 nM, respectively.
For the compound `COc1ccc(Oc2nc(-c3ccc(OC)c(OC)c3)nc3c2cnn3C)cc1OC` [Example 46, 4-(3,4-dimethoxyphenoxy)-6-(3,4-dimethoxyphenyl)-1-methyl-1H-pyrazolo[3,4-d]pyrimidine], the half-inhibitory concentration (IC50) against PI3K-α was 230 nM; against mTOR [1], > 20000 nM; against PI3K-γ, 203 nM; against PI3K-δ, 94 nM; against PI3K-β, 428 nM.
`Cn1ncc2c(Nc3ccc(C(N)=O)cc3)nc(-c3ccccc3)nc21` [Example 11, 4-[(1-methyl-6-phenyl-1H-pyrazolo[3,4-d]pyrimidin-4-yl)amino]benzamide]: the IC50 was found to be 167 nM at PI3K-α, 950 nM against mTOR [1] and 1580 nM against PI3K-γ.
